What all share (format): cell-based
Assay [1] addresses hGcgR (Homo sapiens, UniProt P47871). Briefly: Functional cAMP activation in the presence of 0.1% casein (no HSA). The note with it: read-out: Relative cAMP EC50, hGcgR.
For assay [2], the target named is human GcgR (Homo sapiens, UniProt P47871). In words: Functional cAMP activity in the presence of 1% HSA. To be noted: read-out: cAMP Rel EC50, hGcgR.
For assay [3], the target named is T1, hGIPR (Homo sapiens, UniProt P48546).
T1 sequence (P48546 22-466): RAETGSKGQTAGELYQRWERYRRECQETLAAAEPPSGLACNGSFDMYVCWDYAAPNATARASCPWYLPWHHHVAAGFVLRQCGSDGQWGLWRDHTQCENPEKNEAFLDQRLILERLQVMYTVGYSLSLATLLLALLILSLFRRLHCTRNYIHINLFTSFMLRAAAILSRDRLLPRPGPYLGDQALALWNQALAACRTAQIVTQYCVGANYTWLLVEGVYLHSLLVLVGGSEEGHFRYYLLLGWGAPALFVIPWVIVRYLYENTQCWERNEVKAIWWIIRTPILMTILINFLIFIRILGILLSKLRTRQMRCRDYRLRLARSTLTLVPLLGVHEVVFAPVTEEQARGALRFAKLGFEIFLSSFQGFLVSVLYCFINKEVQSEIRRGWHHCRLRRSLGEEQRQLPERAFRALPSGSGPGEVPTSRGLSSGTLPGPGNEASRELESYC
Briefly: Functional cAMP activation in the presence of 0.1% casein (no HSA). To be noted: read-out: Relative cAMP EC50, hGIPR.

The target in assay [4] is T1, hGIPR. Briefly: Functional cAMP activity in the presence of 1% HSA. The note with it: read-out: cAMP Rel EC50, hGIPR.
Assay [5] deals with T2, hGLP-1R (Homo sapiens, UniProt P43220). In words: Functional cAMP activity in the presence of 1% HSA. The note with it: read-out: cAMP Rel EC50, hGLP-1R.
In assay [6] the target is T2, hGLP-1R. Briefly: Functional cAMP activation in the presence of 0.1% casein (no HSA). To be noted: read-out: Relative cAMP EC50, hGLP-1R.
The mark [7] stands for this setting: 0.1% casein, no HSA, geometric mean.
Setting [8] is: in the presence of 0.1% casein (no HSA), geometric mean.

Where two headings read alike, the source gives them in different places. Starred links: 1 amine or outer side, 2 acyl side, 3 side chain; linkers in the order of their positions; H or OH if unused. Non-standard residues stand in square brackets, D forms with d. Residues, ends and D or L forms follow the SMILES beside them. Groups on a side chain read outwards from the residue. No end group written: not given here. *: point of attachment. C20 diacid = O=C(O)CCCCCCCCCCCCCCCCCCC(=O)*; C18 diacid = O=C(O)CCCCCCCCCCCCCCCCC(=O)*; αMePhe(2-F) = C[C@](N)(Cc1ccccc1F)C(=O)O; γGlu = O=C(O)[C@H](CCC(=O)[*:2])N[*:1]; αMe4Pal = C[C@](N)(Cc1ccncc1)C(=O)O; αMeY = C[C@](N)(Cc1ccc(O)cc1)C(=O)O; 4Pal = N[C@@H](Cc1ccncc1)C(=O)O; αMeL = CC(C)C[C@](C)(N)C(=O)O; αMeS = C[C@](N)(CO)C(=O)O; Orn = NCCC[C@H](N)C(=O)O; AEEA = NCCOCCOCC(=O)O; Aib = CC(C)(N)C(=O)O
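For Relative cAMP EC50, hGIPR in this document: intracellular cAMP rise after 30 min at 37 °C read by HTRF against a standard curve, scaled between buffer alone (0%) and top control ligand concentration (100%), four-parameter fit.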
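For Relative cAMP EC50, hGLP-1R in this document: intracellular cAMP rise after 30 min at 37 °C read by HTRF, normalized between buffer only (0%) and maximal control ligand (100%), four-parameter variable-slope fit.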
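For Relative cAMP EC50, hGcgR in this document: intracellular cAMP rise after 30 min at 37 °C, read by HTRF against a cAMP standard curve, scaled from buffer only (0%) to maximal control ligand response (100%).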

T2 sequence (P43220 24-463): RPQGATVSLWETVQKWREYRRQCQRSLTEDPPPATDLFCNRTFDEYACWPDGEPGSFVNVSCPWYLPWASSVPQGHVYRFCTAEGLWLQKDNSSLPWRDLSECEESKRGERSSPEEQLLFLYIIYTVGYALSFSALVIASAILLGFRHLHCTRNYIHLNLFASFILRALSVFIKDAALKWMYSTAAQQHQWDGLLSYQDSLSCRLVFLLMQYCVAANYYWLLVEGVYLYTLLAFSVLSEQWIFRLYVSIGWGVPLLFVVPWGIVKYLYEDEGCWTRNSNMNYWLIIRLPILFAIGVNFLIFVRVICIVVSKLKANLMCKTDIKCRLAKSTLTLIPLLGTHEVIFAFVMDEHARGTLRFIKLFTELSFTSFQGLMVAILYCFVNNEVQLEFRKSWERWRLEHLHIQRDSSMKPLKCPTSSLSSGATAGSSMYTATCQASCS
hGcgR, sequence (P47871 26-477): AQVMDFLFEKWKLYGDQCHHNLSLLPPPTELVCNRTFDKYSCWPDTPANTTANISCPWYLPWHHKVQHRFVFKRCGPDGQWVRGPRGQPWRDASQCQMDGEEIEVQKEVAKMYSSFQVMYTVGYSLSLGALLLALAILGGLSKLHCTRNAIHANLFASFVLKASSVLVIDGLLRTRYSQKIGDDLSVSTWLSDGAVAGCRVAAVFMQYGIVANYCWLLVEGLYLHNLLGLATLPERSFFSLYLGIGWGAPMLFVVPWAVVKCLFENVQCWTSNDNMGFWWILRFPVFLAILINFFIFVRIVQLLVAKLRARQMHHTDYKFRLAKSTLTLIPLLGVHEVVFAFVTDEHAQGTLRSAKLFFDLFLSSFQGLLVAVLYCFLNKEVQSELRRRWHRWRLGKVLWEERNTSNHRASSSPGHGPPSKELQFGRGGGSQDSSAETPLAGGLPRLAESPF
human GcgR, sequence (P47871 26-477): as above

Usually EC50 stands for the concentration at which the effect is half-maximal. For the compound `CC[C@H](C)[C@H](NC(=O)[C@H](CC(C)C)NC(=O)[C@](C)(Cc1ccc(O)cc1)NC(=O)[C@@H](CCC(=O)O)NC(=O)[C@@H](NC(=O)[C@H](Cc1ccccc1)NC(=O)[C@H](CCC(=O)O)NC(=O)C(C)(C)NC(=O)[C@H](C)NC(=O)[C@H](C)NC(=O)[C@H](CCCCNC(=O)COCCOCCNC(=O)CC[C@H](NC(=O)CCCCCCCCCCCCCCCCC(=O)O)C(=O)O)NC(=O)[C@H](CCCN)NC(=O)[C@H](CC(=O)O)NC(=O)[C@H](CC(C)C)NC(=O)[C@](C)(CC(C)C)NC(=O)[C@@H](NC(=O)[C@](C)(CO)NC(=O)[C@H](Cc1ccncc1)NC(=O)[C@H](CC(=O)O)NC(=O)[C@H](CO)NC(=O)[C@@H](NC(=O)[C@](C)(Cc1ccccc1F)NC(=O)[C@@H](NC(=O)CNC(=O)[C@H](CCC(N)=O)NC(=O)C(C)(C)NC(=O)[C@@H](N)Cc1ccc(O)cc1)[C@@H](C)O)[C@@H](C)O)[C@@H](C)CC)[C@@H](C)CC)C(=O)N[C@@H](CCC(=O)O)C(=O)NCC(=O)NCC(=O)N1CCC[C@H]1C(=O)N[C@@H](CO)C(=O)N[C@@H](CO)C(=O)NCC(=O)N[C@@H](C)C(=O)N1CCC[C@H]1C(=O)N1CCC[C@H]1C(=O)N1CCC[C@H]1C(=O)N[C@@H](CO)C(=O)NCC(=O)N[C@@H](CO)C(=O)N[C@@H](CCC(=O)O)C(N)=O` [Example 702], the EC50 is 1.5 nM in assay [1]; 196 nM in assay [2]; 0.0116 nM in assay [3]; 1.25 nM in assay [4]; 28.4 nM in assay [5]; 0.243 nM in assay [6].

Turning to “H-Y[Aib]QGT[αMePhe(2-F)]TSD[4Pal][αMeS]I[αMeL]LD[Orn]K([AEEA-γGlu-C18 diacid])AQ[αMe4Pal]EFI[dE][αMeY]LIEGGPPS[Aib][Orn]PPP[Orn]GE-NH2 [Example 1195]”, the EC50 in assay [1] (setting [7]) came out at 1.74 nM; in assay [2] it was 242 nM; in assay [3] (setting [7]) it was 0.00708 nM; in assay [4], 0.637 nM; in assay [5] it was 44.2 nM; in assay [6] (setting [7]), 0.367 nM.

Turning to “H-Y[Aib]QGT[αMePhe(2-F)]TSD[4Pal][αMeS]I[αMeL]LD[Orn]K([γGlu-γGlu-C18 diacid])AQ[Aib][Orn]FI[dE]YLIEGGPSSGEPPPSGTEEE-NH2 [Example 540]”, the EC50 in assay [1] was 5.62 nM; in assay [2], 405 nM; in assay [3], 0.0296 nM; in assay [4], 1.93 nM; in assay [5], 38.2 nM; in assay [6] it was 0.686 nM.

In the case of “Y[Aib]QGTFTSDFS[Orn][αMeL]LDKK([γGlu-γGlu-C18 diacid])AQ[Aib]AFIEYLLEGGPSSGAPPPSGT-NH2 [Example 260]”, the EC50 turned out to be 5.04 nM in assay [1] (setting [8]); 162 nM in assay [2]; 0.251 nM in assay [3] (setting [8]); 12.4 nM in assay [4]; 160 nM in assay [5]; 3.85 nM in assay [6] (setting [8]).

As for “H-Y[Aib]QGT[αMePhe(2-F)]TSD[4Pal][αMeS]I[αMeL]LD[Orn]K([AEEA-γGlu-C18 diacid])AQ[αMe4Pal]EFI[dE][αMeY]LVEGGPSSGEPPPSGSE-NH2 [Example 752]”, the concentration giving a half-maximal response (EC50) in assay [1] was determined as 1.9 nM; in assay [2], 228 nM; in assay [3] it was 0.00689 nM; in assay [4], 1.74 nM; in assay [5] it was 44 nM; in assay [6], 0.274 nM.

For the compound “H-Y[Aib]QGTFTSDYSI[αMeL]LDKQAAK([AEEA-AEEA-γGlu-C20 diacid])QFVEWLIA[Aib]GPSSGEPPPGSG-NH2 [Example 335]”, the EC50 in assay [1] (setting [8]) came out at 6.11 nM; in assay [2] it was 1410 nM; in assay [3] (setting [8]) it was 0.292 nM; in assay [4] it was 46.7 nM; in assay [5] it was 150 nM; in assay [6] (setting [8]) it was 0.461 nM.

Take “H-Y[Aib]QGT[αMePhe(2-F)]TSDYSILLDKK([AEEA-γGlu-C18 diacid])AQ[Aib]AFIEYLEEGGPSSGAPPPEEG-NH2 [Example 399]”: the EC50 in assay [1] was determined as 1.51 nM; in assay [2], 560 nM; in assay [3] it was 0.0413 nM; in assay [4], 19.6 nM; in assay [5], 42.8 nM; in assay [6], 0.302 nM.

Consider “Y[Aib]QGTFTSD[4Pal]SQ[αMeL]LDKK([dE-γGlu-dE-C18 diacid])AQ[αMe4Pal]AFIEYLIE[Aib]GPSSGAPPPSGSEE-NH2 [Example 931]”, for which the EC50 in assay [1] (setting [8]) is 12.2 nM; in assay [2], 2300 nM; in assay [3] (setting [8]) it was 0.256 nM; in assay [4] it was 20.8 nM; in assay [5], 878 nM; in assay [6] (setting [8]), 11.3 nM.

On to “Y[Aib]QGT[αMePhe(2-F)]TSD[4Pal][αMeS]I[αMeL]LD[Orn]K([γGlu-γGlu-C18 diacid])AQ[Aib][Orn]FI[dE][αMeY]LQEGGPSSGEPPPSGTE-NH2 [Example 504]”, for which the EC50 was 2.83 nM in assay [1]; 162 nM in assay [2]; 0.0364 nM in assay [3]; 1.8 nM in assay [4]; 16.5 nM in assay [5]; 0.253 nM in assay [6].

As to “H-Y[Aib]QGT[αMePhe(2-F)]TSDYSILLDKK([γGlu-γGlu-C18 diacid])AQ[Aib]AFIEYLEEGGPSSGAPPPEEG-NH2 [Example 471]”, the EC50 in assay [1] turned out to be 2.19 nM; in assay [2], 181 nM; in assay [3] it was 0.0296 nM; in assay [4], 5.45 nM; in assay [5] it was 37.9 nM; in assay [6], 0.317 nM.

On to `CC[C@H](C)[C@H](NC(=O)[C@H](Cc1ccccc1)NC(=O)[C@H](C)NC(=O)C(C)(C)NC(=O)[C@H](CCC(N)=O)NC(=O)[C@H](C)NC(=O)[C@H](CCCCNC(=O)CC[C@H](NC(=O)CC[C@H](NC(=O)CCCCCCCCCCCCCCCCC(=O)O)C(=O)O)C(=O)O)NC(=O)[C@H](CCCCN)NC(=O)[C@H](CC(=O)O)NC(=O)[C@H](CC(C)C)NC(=O)[C@H](CC(C)C)NC(=O)[C@@H](NC(=O)[C@H](CO)NC(=O)[C@H](Cc1ccc(O)cc1)NC(=O)[C@H](CC(=O)O)NC(=O)[C@H](CO)NC(=O)[C@@H](NC(=O)[C@](C)(Cc1ccccc1F)NC(=O)[C@@H](NC(=O)CNC(=O)[C@H](CCC(N)=O)NC(=O)C(C)(C)NC(=O)[C@@H](N)Cc1ccc(O)cc1)[C@@H](C)O)[C@@H](C)O)[C@@H](C)CC)C(=O)N[C@@H](CCC(=O)O)C(=O)N[C@@H](Cc1ccc(O)cc1)C(=O)N[C@@H](CC(C)C)C(=O)N[C@@H](CCC(=O)O)C(=O)N[C@@H](CCC(=O)O)C(=O)NCC(=O)NCC(=O)N1CCC[C@H]1C(=O)N[C@@H](CO)C(=O)N[C@@H](CO)C(=O)NCC(=O)N[C@@H](C)C(=O)N1CCC[C@H]1C(=O)N1CCC[C@H]1C(=O)N1CCC[C@H]1C(=O)N[C@@H](CO)C(=O)N[C@@H](CCC(=O)O)C(N)=O` [Example 433] (H-Y[Aib]QGT[αMePhe(2-F)]TSDYSILLDKK([γGlu-γGlu-C18 diacid])AQ[Aib]AFIEYLEEGGPSSGAPPPSE-NH2; N-terminus assumed), for which the half-maximal effective concentration (EC50) in assay [1] came to 5.78 nM; in assay [2], 532 nM; in assay [3] it was 0.0206 nM; in assay [4], 15.3 nM; in assay [5], 43.4 nM; in assay [6], 0.273 nM.

On to “H-Y[Aib]QGT[αMePhe(2-F)]TSD[4Pal]SILLD[Orn]K([γGlu-γGlu-C18 diacid])AQ[Aib]AFIEYLEEGGPSSGAPPPSGTE-NH2 [Example 513]”, for which the EC50 in assay [1] is 9.58 nM; in assay [2], 1440 nM; in assay [3], 0.0956 nM; in assay [4] it was 10.3 nM; in assay [5], 78.2 nM; in assay [6] it was 0.634 nM.

Turning to “H-Y[Aib]QGTFTSD[4Pal]S[Orn][αMeL]LD[Orn]K([γGlu-γGlu-C18 diacid])AQ[αMe4Pal]AFIEYLIE[Aib]GPSSGAPPPSGS-NH2 [Example 939]”, the EC50 in assay [1] (setting [8]) came out at 2.41 nM; in assay [2] it was 423 nM; in assay [3] (setting [8]), 0.143 nM; in assay [4] it was 14.1 nM; in assay [5], 287 nM; in assay [6] (setting [8]), 2.75 nM.

On to “H-Y[Aib]QGTFTSD[4Pal]SQ[αMeL]LDKK([AEEA-γGlu-C18 diacid])AQ[αMe4Pal]AFIEYLIE[Aib]GPSSGAPPPSGE-NH2 [Example 881]”, for which the EC50 in assay [1] (setting [8]) came out at 4.09 nM; in assay [2] it was 507 nM; in assay [3] (setting [8]), 0.211 nM; in assay [4], 30.1 nM; in assay [5] it was 321 nM; in assay [6] (setting [8]), 2.87 nM.

For the compound “H-Y[Aib]QGT[αMePhe(2-F)]TSD[4Pal][αMeS]I[αMeL]LD[Orn]K([γGlu-γGlu-C18 diacid])AQ[Aib][Orn]FI[dE][αMeY]LQEGGPSSGEPPPEGSEE-NH2 [Example 585]”, the EC50 in assay [1] amounted to 6.25 nM; in assay [2], 436 nM; in assay [3], 0.0801 nM; in assay [4], 3.93 nM; in assay [5], 38.6 nM; in assay [6], 0.601 nM.

For the origin of these results see US20240270821A1, “GIP/GLP1/GCG TRI-RECEPTOR AGONISTS AND USES THEREOF” (priority 2023, published 2024).
